The target in assay [1] is T1, NK2R WT (human TACR2) (Homo sapiens, UniProt P21452).
T1 construct: host or cells: COS7 cells, transient calcium-precipitation transfection
T1 sequence (P21452 1-398): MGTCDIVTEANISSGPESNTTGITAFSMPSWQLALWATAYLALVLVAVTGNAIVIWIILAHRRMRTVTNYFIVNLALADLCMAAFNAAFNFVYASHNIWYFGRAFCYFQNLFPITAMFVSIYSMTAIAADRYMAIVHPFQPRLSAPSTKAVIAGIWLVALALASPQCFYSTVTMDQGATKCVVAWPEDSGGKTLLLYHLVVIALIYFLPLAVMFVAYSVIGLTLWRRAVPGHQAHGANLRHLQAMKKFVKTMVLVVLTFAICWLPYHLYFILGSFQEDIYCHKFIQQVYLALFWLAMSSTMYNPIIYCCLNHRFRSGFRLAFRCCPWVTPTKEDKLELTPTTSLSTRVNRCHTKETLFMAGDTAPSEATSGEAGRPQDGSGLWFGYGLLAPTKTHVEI
As to the kind of experiment: BRET-based cAMP assay (Gs activation), NK2R. In kind it is cell-based. A general note: Bioluminescence resonance energy transfer reports proximity on the nanometre scale.
Description: (§1) All receptor constructs of WT and modified human TACR1 and TACR2 were inserted into the pcDNA3.1(+)-C-DYK vector (Genscript) whereas CAMYEL ([34]) was expressed via pcDNA3.1(+) vector.
COS7 cells were tested monthly for mycoplasma and kept negative. COS7 cells were plated in either clear- or white- or white with clear bottom 96-well plates that were coated with poly-D-lysine (Sigma-Aldrich) 30 min prior to cell seeding (20.000 cells/well). The following day plates were transiently transfected using calcium precipitation with 200 ng/well DNA of receptor DNA and for the cAMP assays a 1000 ng/well of CAMYEL in a culture medium with the addition of 100 μM (final concentration) chloroquine. Transfection was stopped 5 h later with the addition of a fresh maintenance medium.
(§2) The intracellular level of cAMP was monitored in real-time using BRET. This was achieved by implementing a construct consisting of a cAMP binding protein (exchange protein activated by cAMP (EPAC)) which has been flanked by a BRET pair consisting of Renilla luciferase (Rluc) and yellow fluorescent protein (YFP). This construct is called CAMYEL (cAMP sensor using YFP-Epac-Rluc) and enables cAMP production to be sensed as Epac change conformations in response to increasing levels of cAMP, ultimately resulting in a loss of BRET signal.
On the day of the assay, white 96-well plates with COS7 cells were washed twice with 100 μl/well Hank’s balanced salt solution (HBSS) (GIBCO, Life Technologies) and preincubated for 30 min at 37 °C with 85 μl HBSS. Luciferase substrate coelenterazine h (Thermo Fisher Scientific) was added to a final concentration of 5 μM, and a baseline measurement was taken after 5 min. […] Determinations were made in minimum duplicates.
(§3) In both assay formats, the measurement window could shift between runs without affecting the overall curve shape. Emax and Emin values often shifted uniformly upward or downward, while the sigmoidal profile remained consistent, contributing to increased standard deviation.
(§4) All concentration-response curves have been calculated using Prism 10 software (GraphPad Software, www.graphpad.com) nonlinear regression with four parameters. SD is used for concentration-response curves to illustrate variability in experimental measurements. However, when comparing LogEC50 values, standard error of the mean (SEM) is used to reflect the precision of the estimated means and facilitate statistical comparisons. This approach ensures an accurate representation of variability while maintaining appropriate statistical rigor for hypothesis testing. All data consist of two technical replicates from three biological replicates. Statistical significance of differences between LogEC50 values (based on SEM estimates) was assessed using an unpaired two-tailed t test. Normal distribution of LogEC50 values was confirmed by the Shapiro–Wilk test. p-Values were represented using asterisks: ns for p > 0.05 (not significant), ∗ for p ≤ 0.05, ∗∗ for p ≤ 0.01, ∗∗∗ for p ≤ 0.001, and ∗∗∗∗ for p ≤ 0.0001.

For assay [2], the target named is T1, NK2R WT (human TACR2). As to the kind of experiment: IP3 accumulation assay (Gq activation), NK2R. The class given is cell-based.
Description: (§5) COS7 cells were plated in either clear- or white- or white with clear bottom 96-well plates that were coated with poly-D-lysine (Sigma-Aldrich) 30 min prior to cell seeding (20.000 cells/well). The following day plates were transiently transfected using calcium precipitation with 200 ng/well DNA of receptor DNA and for the cAMP assays a 1000 ng/well of CAMYEL in a culture medium with the addition of 100 μM (final concentration) chloroquine. Transfection was stopped 5 h later with the addition of a fresh maintenance medium.
(§6) COS7 cells seeded in clear 96-well plates were incubated with 0.5 μCi/ml myo [3H]inositol (PerkinElmer) in 100 μl growth medium overnight following the transfection. The subsequent day cells were washed twice with 200 μl/well HBSS (GIBCO, Life Technologies) and preincubated for 5 min at 37 °C with 100 μl/well HBSS buffer supplemented with 10 mM LiCl. Ligand addition was followed by 90 min incubation at 37 °C. To stop ligand incubation, cells were lysed with 40 μl 10 mM formic acid followed by 30 min incubation on ice. Subsequently, 35 μl of the lysate was transferred to white 96-well plates together with 60 μl of 1:8 diluted YSi SPA scintillation beads (PerkinElmer). Plates were sealed and vigorously shaken for 15 min followed by 5 min centrifugation at 1500 rpm. Measurements (scintillation) were recorded on a MicroBeta (PerkinElmer) after a 4 h delay, and determinations were made in duplicates.
as §3, §4
The subject of assay [3] is NK1R-R177 mutated to alanine. The conditions noted are these: NK1R-R177 to alanine vs WT; cited from earlier work.
Assay [4] relates to NK1R-Q24 mutated to asparagine. The conditions noted are these: NK1R-Q24 to asparagine vs WT; cited from earlier work.
The subject of assay [5] is NK1R-R177 mutated to lysine. To be noted: NK1R-R177 to lysine vs WT; cited from earlier work.
Assay [6] addresses T2, NK1R WT (human TACR1) (Homo sapiens, UniProt P25103).
T2 construct: host or cells: COS7 cells, transient calcium-precipitation transfection
Briefly: BRET-based cAMP assay (Gs activation), NK1R. The class given is cell-based.
Description: as §1
COS7 cells were maintained in Dulbecco's modified Eagle's medium 1885 with GlutaMAX supplemented with 10% fetal bovine serum (Sigma-Aldrich), 100 units/ml penicillin and 100 μg/ml streptomycin at 37 °C with 10% CO2. […] COS7 cells were plated in either clear- or white- or white with clear bottom 96-well plates that were coated with poly-D-lysine (Sigma-Aldrich) 30 min prior to cell seeding (20.000 cells/well). The following day plates were transiently transfected using calcium precipitation with 200 ng/well DNA of receptor DNA and for the cAMP assays a 1000 ng/well of CAMYEL in a culture medium with the addition of 100 μM (final concentration) chloroquine. Transfection was stopped 5 h later with the addition of a fresh maintenance medium.
as §2
On the day of the assay, white 96-well plates with COS7 cells were washed twice with 100 μl/well Hank’s balanced salt solution (HBSS) (GIBCO, Life Technologies) and preincubated for 30 min at 37 °C with 85 μl HBSS. Luciferase substrate coelenterazine h (Thermo Fisher Scientific) was added to a final concentration of 5 μM, and a baseline measurement was taken after 5 min. […] The BRET signal was calculated as the ratio of emission intensity at 535 nm (citrine) to the emission intensity at 475 nm (luciferase). Determinations were made in minimum duplicates.
as §3
All concentration-response curves have been calculated using Prism 10 software (GraphPad Software, www.graphpad.com) nonlinear regression with four parameters. SD is used for concentration-response curves to illustrate variability in experimental measurements. However, when comparing LogEC50 values, standard error of the mean (SEM) is used to reflect the precision of the estimated means and facilitate statistical comparisons. […] All data consist of two technical replicates from three biological replicates. Statistical significance of differences between LogEC50 values (based on SEM estimates) was assessed using an unpaired two-tailed t test. Normal distribution of LogEC50 values was confirmed by the Shapiro–Wilk test. p-Values were represented using asterisks: ns for p > 0.05 (not significant), ∗ for p ≤ 0.05, ∗∗ for p ≤ 0.01, ∗∗∗ for p ≤ 0.001, and ∗∗∗∗ for p ≤ 0.0001.

Assay [7] concerns the target T2, NK1R WT (human TACR1). As to the kind of experiment: IP3 accumulation assay (Gq activation), NK1R. The class given is cell-based.
Description: as §5, §6, §3, §4
Assay [8] concerns NK1R. To be noted: cited from earlier work.
Assay [9] deals with NK1R. To be noted: cited from earlier work. The source holds these as a separate data set.
Setting [10] is: Fig. 6A, given as log(EC50), transfected COS7 cells, three independent experiments in duplicates, read-out: log(EC50), cAMP - NK2R WT (converted).
Where [11] appears, read: Fig. 6B, given as log(EC50), transfected COS7 cells, three independent experiments in duplicates, read-out: log(EC50), IP3 - NK2R WT (converted).
Where [12] appears, read: Fig. 2A, acetylated analogs, given as log(EC50), transfected COS7 cells, three independent experiments in duplicates.
The mark [13] stands for this setting: read-out: log(EC50), IP3 - NK1R WT (converted).
Setting [14] is: read-out: log(EC50), cAMP - NK1R WT (converted).
Where [15] appears, read: Fig. 2C, analogs with free N termini, given as log(EC50), transfected COS7 cells, three independent experiments in duplicates.
Setting [16] is: Fig. 2D, analogs with free N termini, given as log(EC50), transfected COS7 cells, three independent experiments in duplicates.

No end group written: not given here.

As usually defined, the EC50 is the concentration giving half of the maximal effect.

T2 sequence (P25103 whole entry): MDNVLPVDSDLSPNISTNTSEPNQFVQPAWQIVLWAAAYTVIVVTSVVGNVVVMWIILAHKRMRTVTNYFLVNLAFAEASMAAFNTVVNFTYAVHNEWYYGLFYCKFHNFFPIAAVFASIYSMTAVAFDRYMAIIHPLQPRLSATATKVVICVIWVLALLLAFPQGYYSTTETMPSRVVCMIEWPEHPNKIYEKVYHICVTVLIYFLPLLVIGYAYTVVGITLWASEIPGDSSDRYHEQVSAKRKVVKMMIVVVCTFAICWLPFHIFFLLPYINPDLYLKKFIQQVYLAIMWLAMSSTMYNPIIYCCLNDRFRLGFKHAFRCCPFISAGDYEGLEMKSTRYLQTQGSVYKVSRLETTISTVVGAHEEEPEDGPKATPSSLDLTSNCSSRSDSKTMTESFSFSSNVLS

In the case of `CSCC[C@H](NC(=O)[C@H](CC(C)C)NC(=O)CNC(=O)[C@@H](NC(=O)[C@H](Cc1ccccc1)NC(=O)[C@H](CO)NC(=O)[C@H](CC(=O)O)NC(C)=O)C(C)C)C(N)=O` [Ac-DSFVGLM-NH2], the values for the EC50 at NK2R WT (human TACR2) [1] (setting [10]) and at NK2R WT (human TACR2) [2] (setting [11]) were 50.1 nM and 20 nM, respectively.

As for `CSCC[C@H](NC(=O)[C@H](CC(C)C)NC(=O)CNC(=O)[C@@H](NC(=O)[C@H](Cc1ccccc1)NC(=O)[C@H](CO)NC(=O)[C@@H](N)CC(=O)O)C(C)C)C(N)=O` [DSFVGLM-NH2], the EC50 on NK2R WT (human TACR2) [1] and at NK2R WT (human TACR2) [2] was 10 nM each time. In addition, the “increase in Gs potency compared to acetylated counterpart” value at NK2R WT (human TACR2) [1] (NK2R, Fig. 6A, analog with a free N terminal) was “five”.

`CSCC[C@H](NC(=O)[C@H](CC(C)C)NC(=O)CNC(=O)[C@H](Cc1ccccc1)NC(=O)[C@H](Cc1ccccc1)NC(=O)[C@H](CCC(N)=O)NC(=O)[C@H](CCC(N)=O)NC(=O)[C@@H]1CCCN1C(=O)[C@H](CCCCN)NC(=O)[C@@H]1CCCN1C(=O)[C@@H](N)CCCNC(=N)N)C(N)=O` [SP, substance P]: the “reduction of binding affinity for SP (factor)” value in [3] is 46; in [4], “five”; in assay [5] it was 60.

Ac-QFFGLM-NH2 [Ac-QFFGLM-NH2]: the EC50 at NK1R WT (human TACR1) [6] (setting [12]) was 3.98 nM; on NK1R WT (human TACR1) [7] (setting [13]), 1.58 nM. The “reduction in Gs potency” value at NK1R WT (human TACR1) [6] (NK1R, relative to SP) was 5.0 fold.

As to Ac-QQFFGLM-NH2 [Ac-QQFFGLM-NH2], the EC50 on NK1R WT (human TACR1) [6] (setting [12]) is 1.26 nM; at NK1R WT (human TACR1) [7] (setting [13]), 3.16 nM.

For Ac-SFVGLM-NH2 [Ac-SFVGLM-NH2], the EC50 at NK2R WT (human TACR2) [1] (setting [10]) is 316 nM; on NK1R WT (human TACR1) [6] (setting [14]) it was 200 nM; at NK2R WT (human TACR2) [2] (setting [11]) it was 50.1 nM; on NK1R WT (human TACR1) [7] (setting [13]) it was 7.94 nM.

Consider QFFGLM-NH2 [QFFGLM-NH2], for which the 50% effective concentration (EC50) at NK1R WT (human TACR1) [6] (setting [15]) is 15.8 nM; at NK1R WT (human TACR1) [7] (setting [16]), 12.6 nM; at NK1R WT (human TACR1) [7] (Fig. 5A, Gq activation, given as log(EC50), transfected COS7 cells, three independent experiments in duplicates), 20 nM. Further, the “lower Gq potency” value on NK1R WT (human TACR1) [7] (NK1R, Fig. 5A, compared with acetylated analog and SP) was determined as 15 fold. In addition, the “lower activity in BRET-based cAMP assay (Gs) compared to SP” value in the assay with NK1R [8] is 16 fold. Besides, the “activity in IP3 accumulation assay (Gq) compared to SP” value with NK1R [9] is recorded as “half activity”.

Take QQFFGLM-NH2 [QQFFGLM-NH2]: the EC50 on NK1R WT (human TACR1) [6] (setting [15]) was 7.94 nM; on NK1R WT (human TACR1) [7] (setting [16]) it was 5.01 nM.

As to SFVGLM-NH2 [SFVGLM-NH2], the EC50 at NK2R WT (human TACR2) [1] (setting [10]) was 1580 nM; on NK1R WT (human TACR1) [6] (setting [14]), 316 nM; at NK2R WT (human TACR2) [2] (setting [11]), 200 nM; at NK1R WT (human TACR1) [7] (setting [13]), 50.1 nM.

These data come from article PMC12145819, “Challenging activity and signaling bias in tachykinin NK1 and NK2 receptors by truncated neuropeptides” (The Journal of Biological Chemistry, 2025).
